The values below come from PubChem BioAssay (NCI).

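All cell lines were grown in 96-well plates and treated with compound for 48 hours. TGI is the concentration that stops growth completely.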

Among the test systems are HCT-15 colon; HT29 colon; NCI-H23 lung; NCI-H460 lung; SW-620 colon; TK-10 renal; UACC-257 melanoma; DLD-1 colon; DMS 273 small cell lung; KM20L2 colon; LXFL 529 NSCLC; M19-MEL melanoma; XF 498 CNS.
Common to all, as to assay: growth of human tumour cells (NCI), 48 h

`CC1=NN(C(=O)CC(=O)Nc2cccc(Cl)c2)C(=O)C1N=Nc1ccc(C(=O)O)cc1` (stereo not drawn): the TGI with HCT-15 colon, in the assay on HT29 colon, in the assay on NCI-H23 lung, in the assay on NCI-H460 lung, with SW-620 colon and in the assay on TK-10 renal was greater than 100 µM throughout. The molecule also returned a TGI in the assay on UACC-257 melanoma greater than 100 µM.

As to `Cc1cc(Cl)ccc1C1OC(=O)c2c1ccc1ccccc21` (stereo not drawn), the TGI in the assay on DLD-1 colon, in the assay on DMS 273 small cell lung, in the assay on HCT-15 colon, in the assay with HT29 colon, with KM20L2 colon and in the assay with LXFL 529 NSCLC was greater than 100 µM throughout. Moreover, the TGI in the assay with M19-MEL melanoma, in the assay on NCI-H23 lung, in the assay on NCI-H460 lung, in the assay on SW-620 colon, in the assay on TK-10 renal and with UACC-257 melanoma was greater than 100 µM throughout. This molecule came in with a TGI in the assay on XF 498 CNS greater than 100 µM.

On to `Cc1nc2c(=O)n3c4c(cccc4c2o1)CCC3`, for which the TGI with HCT-15 colon, in the assay with HT29 colon, in the assay with NCI-H23 lung, in the assay with NCI-H460 lung, in the assay on SW-620 colon and with TK-10 renal was greater than 100 µM in each case. The molecule also came in with a TGI with UACC-257 melanoma greater than 100 µM.

For the molecule `CCOC(=O)/C(C#N)=C/c1ccc2c(c1)CC1(C2)Cc2cc(CC)c(C(C)O)cc2C1` (stereo not drawn), the TGI was 20 µM with HCT-15 colon; 39.5 µM with HT29 colon; 39.5 µM in the assay on NCI-H23 lung; 77.1 µM in the assay with NCI-H460 lung; 22.5 µM in the assay on SW-620 colon; 84.2 µM in the assay on TK-10 renal. The molecule further had a TGI with UACC-257 melanoma of 45.6 µM.

As to `CCC(=O)C(C(C)/C=C/CCSc1ccccc1)C(O)CCCCCC(=O)OC` (stereo not drawn), the TGI in the assay with HCT-15 colon, in the assay on HT29 colon, in the assay on NCI-H23 lung, in the assay on NCI-H460 lung, with SW-620 colon and in the assay on TK-10 renal was greater than 100 µM throughout. In addition, the TGI in the assay with UACC-257 melanoma was greater than 100 µM.

As for `O=C(/C=C(\O)c1ccccc1)c1cc(-c2ccccc2)n(-c2ccccc2)n1`, the TGI was greater than 100 µM in the assay with HCT-15 colon; 18.7 µM with HT29 colon; greater than 100 µM with NCI-H23 lung; 98.4 µM in the assay on NCI-H460 lung; greater than 100 µM in the assay with SW-620 colon; greater than 100 µM in the assay on TK-10 renal. In the assay on UACC-257 melanoma, this molecule returned a TGI greater than 100 µM.

For the molecule `CCOP(=O)(OCC)/C(C#N)=C/c1c[nH]c2ccccc12`, the TGI in the assay on HCT-15 colon, in the assay on HT29 colon, in the assay on NCI-H23 lung, in the assay on NCI-H460 lung, in the assay on SW-620 colon and in the assay on TK-10 renal was greater than 100 µM throughout. In the assay on UACC-257 melanoma, this molecule displayed a TGI greater than 100 µM.

`CC[C@@H]1/C=C/C=C/C[C@H](C)[C@@H](O)[C@](C)(O)C(=O)[C@H](C)[C@@H](O)[C@H](C)C(=O)[C@H](C)[C@@H](O)[C@H](C)/C=C/C(=O)O[C@H]2[C@@H](C)[C@@H](CC1)O[C@@]1(CC[C@@H](C)[C@@H](CC(C)O)O1)[C@@H]2C` (stereo partly drawn): the TGI is 11.3 µM with HCT-15 colon; 4.19 µM in the assay on HT29 colon; 7.94 µM in the assay on NCI-H23 lung; 4.25 µM in the assay with NCI-H460 lung; greater than 42 µM in the assay on SW-620 colon; 12.3 µM in the assay with TK-10 renal. The TGI in the assay with UACC-257 melanoma came to 3.09 µM.

Regarding `Cc1c(C)c(S(=O)(=O)N(CCCCCON)OCCCN)c(C)c2c1OC(C)(C)CC2`, the TGI in the assay with HCT-15 colon is 28.5 µM; in the assay on HT29 colon, 22.2 µM; with NCI-H23 lung, 29.6 µM; in the assay with NCI-H460 lung it was 22.4 µM; in the assay with SW-620 colon it was 33.2 µM; with TK-10 renal, 27.5 µM. The molecule also showed a TGI in the assay with UACC-257 melanoma of 29.5 µM.

As to `S=C1N=C(Cl)/C(=C\c2ccccc2)N1`, the TGI with HCT-15 colon, with HT29 colon, with NCI-H23 lung, with NCI-H460 lung, with SW-620 colon and in the assay on TK-10 renal was greater than 100 µM each time. The TGI with UACC-257 melanoma is greater than 100 µM.

Take `C[C@]12CC[C@H](O)CC1=CC[C@@H]1C2CC[C@]2(C)Nc3c(cnn3-c3ccc(F)cc3)CC12` (stereo partly drawn): the TGI in the assay with HCT-15 colon, in the assay with HT29 colon, in the assay on NCI-H23 lung, with NCI-H460 lung, with SW-620 colon and with TK-10 renal was greater than 100 µM in each case. Besides, in the assay with UACC-257 melanoma, the TGI is greater than 100 µM.

For the molecule `COc1ccc(NC2CC(C)N(C(=O)c3ccccc3)O2)cc1` (stereo not drawn), the TGI in the assay on HCT-15 colon, with HT29 colon, in the assay with NCI-H23 lung, in the assay with NCI-H460 lung, with SW-620 colon and in the assay on TK-10 renal was greater than 10 µM throughout. Moreover, the TGI with UACC-257 melanoma is greater than 10 µM.

Take `CC#CC(O)(C(=O)OC1CC2CCC(C1)N2C)C1CCCC1` (stereo not drawn): the TGI in the assay on HCT-15 colon, in the assay with HT29 colon, with NCI-H23 lung, in the assay on NCI-H460 lung, in the assay with SW-620 colon and with TK-10 renal was greater than 100 µM throughout. Further, the TGI with UACC-257 melanoma is greater than 100 µM.

For `c1ccc(CC2(c3cc4ccccc4[nH]3)OCCO2)nc1`, the TGI with HCT-15 colon, in the assay with HT29 colon, in the assay with NCI-H23 lung, in the assay on NCI-H460 lung, in the assay on SW-620 colon and in the assay on TK-10 renal was greater than 100 µM in each case. This molecule yielded a TGI with UACC-257 melanoma greater than 100 µM.

Take `Cn1c2ccccc2c(=O)c2[nH]c3ccccc3c21`: the TGI in the assay with HCT-15 colon, in the assay on HT29 colon, in the assay on NCI-H23 lung, in the assay with NCI-H460 lung, in the assay with SW-620 colon and in the assay on TK-10 renal was greater than 100 µM each time. Also, the TGI with UACC-257 melanoma is greater than 100 µM.

With `CCc1n[nH]c(=O)n1CCO`, the TGI in the assay on HCT-15 colon, in the assay on HT29 colon, in the assay on NCI-H23 lung, in the assay on NCI-H460 lung, with SW-620 colon and in the assay on TK-10 renal was greater than 100 µM in each case. Also, the TGI in the assay with UACC-257 melanoma is greater than 100 µM.
